Test results: patent US20240417387A1, “SULFONYLPIPERAZINYL COMPOUNDS FOR TREATMENT OF BACTERIAL INFECTIONS” (Hoffmann-La Roche Inc., priority 2021, published 2024)
Converted amounts (≈) assume the structure as drawn.

Key:
[1] = tested on: Escherichia coli ATCC 25922; assay: Minimal Inhibitory Concentration (MIC) broth dilution assay, E. coli ATCC 25922; type: cell-based; settings: for MIC: Escherichia coli, ATCC25922, 20 h, read-out: MIC E. coli ATCC 25922
Description: (§1) The antibacterial activity of molecules was evaluated against the commonly used quality control strain Escherichia coli BW 25113, Escherichia coli ATCC 25922 and the rifampin-resistant mutant strain Klebsiella pneumonia ATCC 43816. Escherichia co/i BW 25113 was obtained from the Coli Genetic Stock Center (CGSC) (strain 7636). Both Escherichia coli ATCC 25922 and Klebsiella pneumonia ATCC 43816 were originally derived from human clinical samples and are available from ATCC (American Type Culture Collection). The in vitro potency of compounds to inhibit Escherichia coli (BW 25113, ATCC 25922) and Klebsiella pneumonia (ATCC 43816) growth was assessed by the MIC (Minimal Inhibitory Concentration) broth dilution method. Specifically compound dilutions were prepared from 10 mM DMSO stock solutions as follows: i) serial 2-fold dilution in 20 μL DMSO were prepared in a master plate (Greiner, Cat No: 651201), ii) 180 μL sterile distilled water was added to each aliquot and iii) 10 μL diluted compounds were transferred into a new assay plate (Costar, 3599).
(§2) Vials of each test microorganisms were maintained frozen in the vapor phase of a liquid nitrogen freezer. Single-use frozen vials of the three strains Escherichia coli BW 25113, Escherichia coli ATCC 25922 (KWTKSTTK, 0335K) and Klebsiella pneumonia ATCC 43816, with predetermined CFU/mL, were taken out from the freezer, thawed at room temperature, and diluted in Cation-Adjusted Mueller Hinton Broth (CAMVIHB) to achieve a final inoculum of 5×10^5 CFU/mL. 90 μL bacteria containing broth was dispensed to the assay plate containing the pre-dispensed compound dilutions and mixed by pipetting 5 times.
(§3) Then the assay plates were incubated for 20 hours at 35° C. in ambient air. Following incubation, the MIC […], the lowest concentration of drug that inhibits visible growth of the microorganism was read with the help of a magnification mirror and recorded.

[2] = tested on: Klebsiella pneumonia ATCC 43816; assay: Minimal Inhibitory Concentration (MIC) broth dilution assay, K. pneumonia ATCC 43816; type: cell-based; settings: CAMHB; for MIC: Klebsiella pneumoniae, ATCC43816, 20 hours at 35° C., read-out: MIC K. p ATCC 43816
Description: as §1, §2, §3

[3] = Human microsome stability assay; type: in vitro ADME
Description: The human microsomal stability assay is used for early assessment of metabolic stability of a test compound in human liver microsomes.
Human liver microsomes (Cat.NO.: 452117, Corning, USA) were preincubated with test compound for 10 minutes at 37° C. in 100 mM potassium phosphate buffer, pH 7.4. The reactions were initiated by adding NADPH regenerating system. The final incubation mixtures contained 1 µM test compound, 0.5 mg/mL liver microsomal protein, 1 mM MgCl2, 1 mM NADP, 1 unit/mL isocitric dehydrogenase and 6 mM isocitric acid in 100 mM potassium phosphate buffer, pH 7.4. After incubation times of 0, 3, 6, 9, 15 and 30 minutes at 37° C., 300 μL of cold acetonitrile (including internal standard) was added to 100 μL incubation mixture to terminate the reaction. Following precipitation and centrifugation, the amount of compound remaining in the samples were determined by LC-MS/MS. Controls of no NADPH regenerating system at zero and 30 minutes were also prepared and analyzed. […] (Human microsome clearance: <7 mL/min/kg: low; 7-16.2 mL/min/kg: medium; >16.2 mL/min/kg: high)

[4] = tested on: Escherichia coli BW 25113; assay: Minimal Inhibitory Concentration (MIC) broth dilution assay, E. coli BW 25113; type: cell-based; settings: CAMHB; for MIC: Escherichia coli, BW25113, 20 hours at 35° C., read-out: MIC E. coli K-12 BW 25113
Description: as §1, §2, §3

[5] = human liver microsomes 0.5 mg/mL, 37° C., pH 7.4, NADPH regenerating system

Compound | MIC [1] | MIC [2] | Clearance of Human microsome [3, 5] | MIC [4] | MIC E. coli K-12 ATCC 25922 ([1]; broth dilution, 20 hours at 35° C., CAMHB) | MIC K. p ATCC 43816 ([2]; 20 hours at 35° C.) | Clearance of Human microsome ([3]; human, microsomes, pH 7.4) | MIC E. coli K-12 BW 25113 ([4]; 20 hours at 35° C.)
N[C@@H]1CC(=O)N(c2ccc(S(=O)(=O)N3CCN(c4cc(C(F)(F)[C@H]5CC[C@H](C(=O)N[C@H]6CCC(N7C[C@H](N)C[C@H](N)C7)C6)CC5)cc(Cl)n4)CC3)cc2)C1 (stereo partly drawn) [Example 081, Trans-4-[[2-chloro-6-[4-[4-[(4R)-4-amino-2-oxo-pyrrolidin-1-yl]phenyl]sulfonylpiperazin-1-yl]-4-pyridyl]-difluoro-methyl]-N-[(1S)-3-[cis-3,5-diamino-1-piperidyl]cyclopentyl]cyclohexanecarboxamide] | 0.65 µg/mL (≈ 0.82 µM) | 0.65 µg/mL (≈ 0.82 µM) | 6.71 mL/min/kg | 0.65 µg/mL (≈ 0.82 µM) |  |  |  | 
NCC(O)CNC(=O)c1ccc(C(F)(F)c2cc(Cl)nc(N3CCN(S(=O)(=O)c4ccc(N5CC(N)CC5=O)cc4)CC3)c2)cc1 (stereo not shown) [Example 018, N-(3-amino-2-hydroxy-propyl)-4-[[2-[4-[4-(4-amino-2-oxo-pyrrolidin-1-yl)phenyl]sulfonylpiperazin-1-yl]-6-chloro-4-pyridyl]-difluoro-methyl]benzamide] | 0.62 µg/mL (≈ 0.914 µM) | 0.62 µg/mL (≈ 0.914 µM) | 6.15 mL/min/kg | 0.62 µg/mL (≈ 0.914 µM) |  |  |  | 
NC[C@@H]1CN(C(=O)[C@H]2CC[C@H](C(F)(F)c3cc(Cl)nc(N4CCN(S(=O)(=O)c5ccc(N6C[C@H](N)CC6=O)cc5)CC4)c3)CC2)C[C@@H]1CN [Example 067, Trans-(4R)-4-amino-1-[4-[4-[4-[[4-[cis-3,4-bis(aminomethyl)pyrrolidine-1-carbonyl]cyclohexyl]-difluoro-methyl]-6-chloro-2-pyridyl]piperazin-1-yl]sulfonylphenyl]pyrrolidin-2-one] | 0.3 µg/mL (≈ 0.415 µM) | 0.57 µg/mL (≈ 0.788 µM) | 6.15 mL/min/kg | 0.59 µg/mL (≈ 0.816 µM) |  |  |  | 
C[C@H]1CNC[C@@H]1NC(=O)[C@H]1CC[C@H](C(F)(F)c2cc(Cl)nc(N3CCN(S(=O)(=O)c4ccc(N5C[C@H](N)CC5=O)cc4)CC3)c2)CC1 [Example 068, Trans-4-[[2-[4-[4-[(4R)-4-amino-2-oxo-pyrrolidin-1-yl]phenyl]sulfonylpiperazin-1-y1]-6-chloro-4-pyridy1]-difluoro-methyl]-N-[(3R,4S)-4-methylpyrrolidin-3-yl]cyclohexanecarboxamide] | 0.32 µg/mL (≈ 0.461 µM) | 0.32 µg/mL (≈ 0.461 µM) | 9.49 mL/min/kg | 0.32 µg/mL (≈ 0.461 µM) |  |  |  | 
NC[C@@H]1CN([C@@H]2CC[C@H](NC(=O)[C@H]3CC[C@H](C(F)(F)c4cc(Cl)nc(N5CCN(S(=O)(=O)c6ccc(N7C[C@H](N)CC7=O)cc6)CC5)c4)CC3)C2)C[C@@H]1CN [Example 080, Trans-4-[[2-[4-[4-[(4R)-4-amino-2-oxo-pyrrolidin-1-yl]phenyl]sulfonylpiperazin-1-yl]-6-chloro-4-pyridyl]-difluoro-methyl]-N-[(1S,3R)-3-[cis-3,4-bis(aminomethyl)pyrrolidin-1-yl]cyclopentyl]cyclohexanecarboxamide] | 0.33 µg/mL (≈ 0.409 µM) | 0.99 µg/mL (≈ 1.23 µM) |  | 0.33 µg/mL (≈ 0.409 µM) |  |  |  | 
NCCNC(=O)[C@H]1CC[C@H](C(F)(F)c2cc(Cl)nc(N3CCN(S(=O)(=O)c4ccc(N5C[C@H](N)CC5=O)cc4)CC3)c2)CC1 [Example 041, Trans-N-(2-aminoethyl)-4-[[2-chloro-6-[4-[4-[(4R)-4-amino-2-oxo-pyrrolidin-1-yl]phenyl]sulfonylpiperazin-1-yl]-4-pyridyl]-difluoro-methyl]cyclohexanecarboxamide] | 0.54 µg/mL (≈ 0.825 µM) | 0.54 µg/mL (≈ 0.825 µM) | 9.73 mL/min/kg | 0.54 µg/mL (≈ 0.825 µM) |  |  |  | 
NCC(=O)N[C@H]1CC[C@@H](NC(=O)[C@H]2CC[C@H](C(F)(F)c3cc(Cl)nc(N4CCN(S(=O)(=O)c5ccc(N6C[C@H](N)CC6=O)cc5)CC4)c3)CC2)C1 [Example 079, Trans-N-[(1R,3S)-3-[(2-aminoacetyl)amino]cyclopentyl]-4-[[2-[4-[4-[(4R)-4-amino-2-oxo-pyrrolidin-1-yl]phenyl]sulfonylpiperazin-1-yl]-6-chloro-4-pyridyl]-difluoro-methyl]cyclohexanecarboxamide] | 3.4 µg/mL (≈ 4.53 µM) | 0.85 µg/mL (≈ 1.13 µM) | 11.16 mL/min/kg | 3.4 µg/mL (≈ 4.53 µM) |  |  |  | 
CN[C@@H]1CC(=O)N(c2ccc(S(=O)(=O)N3CCN(c4cc(C(F)(F)[C@H]5CC[C@H](C(=O)NCCCN)CC5)cc(Cl)n4)CC3)cc2)C1 [Example 069, Trans-N-(3-aminopropyl)-4-[[2-chloro-6-[4-[4-[(4R)-4-(methylamino)-2-oxo-pyrrolidin-1-yl]phenyl]sulfonylpiperazin-1-y1]-4-pyridyl]-difluoro-methyl]cyclohexanecarboxamide] | 0.56 µg/mL (≈ 0.821 µM) | 0.56 µg/mL (≈ 0.821 µM) | 10.85 mL/min/kg | 0.56 µg/mL (≈ 0.821 µM) |  |  |  | 
NCCCNC(=O)c1ccc(C(F)(F)c2cc(Cl)nc(N3CCN(S(=O)(=O)c4ccc(N5CC(N)CC5=O)cc4)CC3)c2)cc1 (stereo not shown) [Example 016, 4-[[2-[4-[4-(4-amino-2-oxo-pyrrolidin-1-yl)phenyl]sulfonylpiperazin-1-yl]-6-chloro-4-pyridyl]-difluoro-methyl]-N-(3-aminopropyl)benzamide] | 0.35 µg/mL (≈ 0.529 µM) | 0.35 µg/mL (≈ 0.529 µM) | 8.63 mL/min/kg | 0.35 µg/mL (≈ 0.529 µM) |  |  |  | 
C[C@H]1C[C@H](N)CN1C(=O)[C@H]1CC[C@H](C(F)(F)c2cc(Cl)nc(N3CCN(S(=O)(=O)c4ccc(N5C[C@H](N)CC5=O)cc4)CC3)c2)CC1 [Example 064, (4R)-4-amino-1-[4-[4-[4-[[4-[(2S,4S)-4-amino-2-methyl-pyrrolidine-1-carbonyl]cyclohexyl]-difluoro-methyl]-6-chloro-2-pyridyl]piperazin-1-yl]sulfonylphenyl]pyrrolidin-2-one] | 0.57 µg/mL (≈ 0.821 µM) | 0.57 µg/mL (≈ 0.821 µM) | 6.15 mL/min/kg | 0.67 µg/mL (≈ 0.965 µM) |  |  |  | 
NC1CC(=O)N(c2ccc(S(=O)(=O)N3CCN(c4cc(C(F)(F)c5ccc(C(=O)NCCCO)cc5)cc(Cl)n4)CC3)cc2)C1 (stereo not shown) [Example 015, 4-[[2-[4-[4-(4-amino-2-oxo-pyrrolidin-1-yl)phenyl]sulfonylpiperazin-1-yl]-6-chloro-4-pyridyl]-difluoro-methyl]-N-(3-hydroxypropyl)benzamide] | 0.7 µg/mL (≈ 1.06 µM) | 0.7 µg/mL (≈ 1.06 µM) | 9.58 mL/min/kg | 0.7 µg/mL (≈ 1.06 µM) |  |  |  | 
Trans-N-[(1R,3S)-3-aminocyclopentyl]-4-[2-[4-[4-[(4R)-4-amino-2-oxo-pyrrolidin-1-yl]phenyl]sulfonylpiperazin-1-yl]-6-chloro-4-pyridyl]-difluoro-methyl]cyclohexanecarboxamide [Example 066] |  |  |  |  | 0.63 µg/mL | 0.59 µg/mL | 6.15 mL/min/kg | 1.3 µg/mL
NCCCN(CCCN)C(=O)C12CCC(C(F)(F)c3cc(Cl)nc(N4CCN(S(=O)(=O)c5ccc(N6C[C@H](N)CC6=O)cc5)CC4)c3)(CC1)C2 [Example 046] | 1.2 µg/mL (≈ 1.63 µM) | 1.2 µg/mL (≈ 1.63 µM) | 6.15 mL/min/kg | 2.4 µg/mL (≈ 3.26 µM) |  |  |  | 
NCC(O)CNC(=O)c1ccc(C(F)(F)c2cc(Cl)nc(N3CCN(S(=O)(=O)c4ccc(N5C[C@H](N)CC5=O)cc4)CC3)c2)cc1 (stereo partly drawn) [Example 019, N-(3-amino-2-hydroxy-propyl)-4-[[2-chloro-6-[4-[4-[(4R)-4-amino-2-oxo-pyrrolidin-1-yl]phenyl]sulfonylpiperazin-1-yl]-4-pyridyl]-difluoro-methyl]benzamide] | 0.71 µg/mL (≈ 1.05 µM) | 0.35 µg/mL (≈ 0.516 µM) | 10.63 mL/min/kg | 0.35 µg/mL (≈ 0.516 µM) |  |  |  | 
